# Measured values published in a melting point compilation (Tetko et al.; mined from patent text by program, amines drawn as free bases though some values may be those of a salt).
row,SMILES,melting point [°C]
1,Cn1cccc1Cc1cccc(NC(N)=O)c1,84 to 86
2,Nc1nc2ccc3ccccc3c2s1,258 to 260
3,c1ccc(C(C2=NCCN2)c2ccccn2)cc1 (configuration not stated),134 to 136
4,CCCCCCCCCCCCCCCCCCOc1cc(N(CC(=O)O)CC(=O)O)cc(S(=O)CC(=O)O)c1 (configuration not stated),138 to 140
5,CNC(=O)C(NC(=O)Nc1n[nH]c(=S)s1)c1ccccc1 (configuration not stated),240 to 241
6,Nc1ccc(C=Cc2ccc3ccccc3n2)cc1,178 to 180
7,Fc1cc(F)c(-c2ccccc2)c(F)c1F,86 to 88
8,CN(Cc1ccc2c(c1)Nc1nccnc1S2)C(N)=C[N+](=O)[O-],> 265
9,COC1C(O)C(COC(c2ccccc2)(c2ccccc2)c2ccccc2)OC(Oc2ccc([N+](=O)[O-])cc2)C1O (configuration not stated),104
10,CCOC(=O)c1ccc(-c2cccc(CN)n2)cc1,141 to 143
11,O=C1c2cccc(Br)c2CN1Cc1cccc(C(F)(F)F)c1,119 to 120
12,CC(C)CCCC(C)CC(=O)Oc1ccc(-c2ccc(OC(=O)CC(C)CCCC(C)C)cc2)cc1 (configuration not stated),72 to 73
13,CCOC(=O)C(Sc1ccc(O)cc1)c1ccc(-c2cccs2)cc1 (configuration not stated),103
14,Cc1oc(-c2ccccc2)nc1COc1cc(COc2ncccc2CO)on1,136 to 137
15,CC(=O)Oc1cccc2sc(-c3ccc(C(=O)O)cc3)nc12,229 to 233
16,COc1c(NOCc2ccccc2)ccnc1C,130
17,O=C(CCC(=O)N1CCCCC1)c1ccccc1,52 to 54
18,CCOC(=O)c1cc(C#Cc2ccccn2)c2ccccc2n1,129 to 131
19,CC(C)(C)OC(=O)c1sc(Nc2ccccc2)c2c1CCc1cnoc1-2,148 to 149
20,CC(=O)NC[C@H]1CN(c2ccc(N3CCC(=CC4(C#N)CC4)CC3)c(F)c2)C(=O)O1,175 to 179
21,COc1ccc2c(c1)c(Cc1nc(-c3csc4ccccc34)cs1)c(C)n2C(=O)c1ccc(Cl)cc1,68 to 72
22,CCOC(OCC)c1cn2cccc(CO)c2n1,87 to 89
23,O=C(NCc1ccccc1)c1ccnc(NC(=O)c2cccc(C(F)(F)F)c2)c1,87 to 88
24,Nc1ccc(Cc2ccccc2)cc1[N+](=O)[O-],80 to 83
25,COc1cccc(CCC(=O)O)c1C,143 to 147
26,COc1ccc(CN(C)CCC2CN(C)C(=S)c3cccnc3O2)cc1 (configuration not stated),128 to 130

row,SMILES,melting point [°C]
1,CCC(C)(C)N1CCNC(S(=O)(=O)Nc2ccc3[nH]c(C(=O)N4CCN(c5ncccc5NC(C)C)CC4)cc3c2)C1 (configuration not stated),158 to 160
2,Clc1cc(Br)c2c(c1)COCO2,108 to 110
3,COC(=O)CCC(OC(=O)Oc1ccccc1)C(=O)c1ccc(Cl)cc1 (configuration not stated),97 to 98
4,Clc1cnc(Cl)c2cc(Br)ccc12,134 to 135
5,C=C(C(=O)c1ccc(C(=O)NCCN2CCOCC2)cc1)c1cc(OC)c(OC)c(-c2cccs2)c1,84 to 87
6,COc1ccc(-c2nc(Sc3ccc(C(F)(F)F)cc3)[nH]c2-c2ccc(OC)cc2)cc1,179 to 181
7,CCC1(C)OC(c2ccc(S(C)(=O)=O)cc2)=C(c2ccccc2)C1=O (configuration not stated),115 to 117
8,O=C(O)COc1ccc2cc(CNC(=O)c3cc(-c4ccc(Cl)cc4)oc3C(F)(F)F)ccc2c1,194 to 196
9,Cc1nnc2n1-c1ccc(C#CCC3C(=O)Nc4ccccc43)cc1C(c1ccccc1Cl)=NC2 (configuration not stated),141 to 143
10,Cc1c(C(=O)O)cccc1-c1cccs1,91.5 to 93
11,CCCCCCCCCCCCC1CC(=O)N(NC(=O)CCc2cc(C(C)(C)C)c(O)c(C(C)(C)C)c2)C1=O (configuration not stated),55 to 60
12,O=C1c2ccccc2C(=O)N1CC(=O)N1c2ccccc2N(Cc2ccc(OCc3ccccc3)cc2)C(=O)[C@H]2CCC[C@H]21 (relative stereo),179 to 181
13,CCOc1ccc(-c2c(C(=O)OC)c(C(=O)OC)c(O)c3cc(OC)c(OC)c(OC)c23)cc1OCC,138 to 140
14,O=C1c2ccccc2C(=O)N1CCc1cccc(F)c1,122 to 125
15,COCCOC(=O)OC[C@@H]1CC(c2ccc(-c3ccc(N4C[C@H](Cn5ccnn5)OC4=O)cc3F)cn2)=NO1,112
16,COc1cc2c(cc1OC)[C@@H](O)[C@H](CN1CCC3(CC1)C(=O)NCN3c1ccccc1)C2 (relative stereo),189 to 190
17,CN1Cc2cccc(Cl)c2S1(=O)=O,95 to 97
18,CC(=O)Oc1ccc([C@@H]2O[C@H]2CO)cc1,59 to 61
19,COC1=C(C#N)C(=O)N(C)C1=O,123 to 125
20,O=Cc1ccc(-c2ccccc2Cl)cc1,124 to 125
21,O=c1[nH]c2cccc(OCCN3CCc4ccccc4C3)c2[nH]c1=O,> 250
22,CC(Oc1cc(-c2nn(C)c(C(F)(F)F)c2Cl)c(F)cc1Cl)C(=O)O (configuration not stated),150 to 151
23,Cn1nc(-c2cnc(N)nc2-c2ccc(Cl)cc2)ccc1=O,264
24,O=C(NC(Cc1ccc(OCc2ccc(F)cc2)cc1)C(=O)O)c1cn2ccc(-c3ccc(Cl)cc3)cc2n1 (configuration not stated),255 to 257
25,NC(=O)N1CCC(c2nn(-c3ccc(F)cc3)c3ccccc23)CC1,145 to 147
26,COc1ccc(C2OCC(C)(C)C(C(=O)NCCC(=O)O)O2)cc1 (configuration not stated),135 to 136

row,SMILES,melting point [°C]
1,CC(=C1SCCCS1)c1ccc(N2CCN(C)CC2)cc1,91 to 92
2,CC(C)(O)C(=O)Nc1ccc(Nc2ccccc2)cc1,171 to 174
3,Cc1c(OCC(F)(F)F)ccnc1CSc1nc2ccccc2n1N,134 to 135
4,COc1ccc2c(c1)c1c(n2C(=O)c2ccccc2)CCC(C(=O)O)C1 (configuration not stated),216 to 219
5,CCOC(=O)c1c(C)ccc(Cc2c[nH]cn2)c1O,101 to 103
6,Nc1nc(O)c2c(n1)CCCS2,> 300
7,NCc1nc2ccccc2[nH]1,81 to 83
8,CCOC(=O)C=Cc1ccc(O)c(Br)c1,112 to 113
9,CCC(=O)Nc1cc(F)ccc1C(=O)O,170 to 171
10,CCOC(=O)CCN=c1sc2ccc(Cl)cc2s1,64 to 65
11,COC(=O)Cc1ccccc1CSc1nc2cc(C(F)(F)F)ccc2s1,97 to 99
12,CC(C)=CCOc1ccc(C(=O)C=Cc2ccc(F)cc2)c(O)c1,96 to 97
13,CCOP(=O)(OCC)C(CCc1cc(C)nc2c(C#N)c(C)nn12)P(=O)(OCC)OCC,49 to 50
14,CC1(COc2ccc(Cc3nnn[nH]3)cc2)CCCCC1O (configuration not stated),103 to 108
15,Nc1[nH]nc(-c2ccc(F)cc2)c1-c1ccncc1,> 250
16,Cn1ncc2c1C(=O)C(Cl)=C(NC1CC1)C2=O,175 to 176
17,CC(C)(C)OC(=O)N1CCC[C@@H](Nc2nccc(-c3c(-c4cccc(C#N)c4)nc4sccn34)n2)C1,108 to 110
18,COC(=O)c1ccc2c(c1)C=CC(=C(Cl)Cl)CO2,119 to 121
19,COCOc1ccc(Cl)cc1-c1cc(-c2cccc([N+](=O)[O-])c2)c(C#N)c(NC(=O)c2ccccc2)n1,205 to 206
20,COc1ccc(C(=O)Oc2cc(OCCO/N=C/c3ccc(C(C)(C)C)cc3)ccc2C(=O)O)cc1,116 to 118
21,NC(=O)c1sc2ccc(OCc3ccccc3)cc2c1Cl,206
22,CC1(C)C=C(C(=O)c2ccc3c(c2)CCN(C(N)=O)C3)C(C)(C)CC1,78.6 to 79.7
23,C=CCOC(=O)c1c(C)c(OC)cc(O[Si](C)(C)C(C)(C)C(C)C)c1C=O,81 to 82
24,O=c1c2c(N3CCNCC3)cc(Cl)cc2n(Cc2ccccc2)c(=O)n1Cc1ccccc1Cl,120 to 125
25,COc1ccc(Nc2nc(Cl)c3sccc3n2)c(C)c1,151 to 153
26,CN(c1cccc2cc(-c3nccs3)[nH]c12)S(=O)(=O)c1ccsc1CCl,190

row,SMILES,melting point [°C]
1,CC(=O)Nc1cnn2c1-c1ccccc1NC2(C)C,228 to 230
2,COC(=O)c1cc(I)ccc1NC=C1C(=O)OC(C)(C)OC1=O,206 to 208
3,CN1CCC(c2nn(CCCO)c3ccccc23)CC1,96 to 98
4,Oc1nc2ccc(F)cc2nc1O,> 300
5,CC(=O)C(C)Oc1ccc2[nH]c(C)c(C(=O)OCc3ccccc3)c2c1 (configuration not stated),94 to 98
6,CC(C)c1nnn(-c2c(Cl)cccc2Cl)c1COc1ccc(N(C)C(=O)c2ccc(C(=O)O)cc2)c(C(F)(F)F)n1,218 to 219
7,CCCn1c(=O)c2c(nc(C=Cc3cc(OC)c(OC)cc3S(=O)(=O)N3CCCCC3)n2C)n(CCC)c1=O,266 to 268
8,CC(C)c1nc(-c2ccccc2Cc2ccccc2)cc(-c2ccc(F)cc2)c1CO,122 to 124
9,COc1ccc(C(=O)O)c2c1CCCC2,214 to 215
10,C[Si](C)(CCO)Cc1ccccc1,132 to 133
11,CCOc1cc(-c2cc(C(F)(F)F)n3ncc(C(=O)Nc4cc(S(=O)(=O)NCCO)sc4Cl)c3n2)ccc1C(F)(F)F,250
12,CCOC(=O)CC(=O)c1csc(-c2ccccc2)n1,66 to 68
13,O=CNc1c(-c2ccccc2)sc2ccccc12,78 to 79
14,NC(=O)C(F)(F)C(O)(Cn1cncn1)c1ccccc1 (configuration not stated),160 to 161
15,CCCCc1nc2c(N)nc3ccc(OCCC4CCN(C(=O)C5CCCC5)CC4)cc3c2n1C,147 to 150
16,CCOC(=O)c1oc2cc(O)ccc2c(=O)c1C#N,262 to 264
17,O=[N+]([O-])c1cc(F)c(Cl)c(Br)c1Cl,51 to 53.5
18,c1cnc(-c2cc(C3CC3)on2)cn1,86 to 91
19,CSC1=CC2=CN(O)NN2C(Cl)=N1,256 to 257
20,CC(C)Oc1ccc(/C=C(\NC(=O)c2ccc(OCCC3C=CCC3)cc2)C(=O)NCCO)cc1 (configuration not stated),67 to 70
21,CCCCNc1nn(C(=O)OC)c2c1c(=O)n(CCC)c1ccccc21,147 to 149
22,C[C@@H]1C[C@H](C)CN(C(=O)[C@@H]2Cc3ccccc3N2c2cccnn2)C1,159 to 160
23,O=c1c2cc(F)c(F)cc2n(-c2ccccc2F)c(=O)n1OCc1ccccc1,204 to 206
24,CC1CC(=O)C(C(=O)c2ccc(C(F)(F)F)cc2[N+](=O)[O-])C(=O)O1 (configuration not stated),135 to 136
